In patent US20260258064A1 (SIRONAX LTD., priority 2023, published 2026):
pIC50: −log10 of the molar value.

target: T1, SARM1 (50-724) (Homo sapiens, UniProt Q6SZW1); test: SARM1 (50-724) enzymatic assay (LC-MS/MS); assay type: biochemical; conditions: Purified SARM1 (50-724) 2 nM, NMN as activator, NAD+ as substrate, 1 h at room temperature, read-out: IC50 (SARM1 inhibitory activity)
T1 construct: Purified SARM1 (50-724) with a final concentration of 2 nM was pre-incubated with a test compound
T1 sequence (Q6SZW1 50-724): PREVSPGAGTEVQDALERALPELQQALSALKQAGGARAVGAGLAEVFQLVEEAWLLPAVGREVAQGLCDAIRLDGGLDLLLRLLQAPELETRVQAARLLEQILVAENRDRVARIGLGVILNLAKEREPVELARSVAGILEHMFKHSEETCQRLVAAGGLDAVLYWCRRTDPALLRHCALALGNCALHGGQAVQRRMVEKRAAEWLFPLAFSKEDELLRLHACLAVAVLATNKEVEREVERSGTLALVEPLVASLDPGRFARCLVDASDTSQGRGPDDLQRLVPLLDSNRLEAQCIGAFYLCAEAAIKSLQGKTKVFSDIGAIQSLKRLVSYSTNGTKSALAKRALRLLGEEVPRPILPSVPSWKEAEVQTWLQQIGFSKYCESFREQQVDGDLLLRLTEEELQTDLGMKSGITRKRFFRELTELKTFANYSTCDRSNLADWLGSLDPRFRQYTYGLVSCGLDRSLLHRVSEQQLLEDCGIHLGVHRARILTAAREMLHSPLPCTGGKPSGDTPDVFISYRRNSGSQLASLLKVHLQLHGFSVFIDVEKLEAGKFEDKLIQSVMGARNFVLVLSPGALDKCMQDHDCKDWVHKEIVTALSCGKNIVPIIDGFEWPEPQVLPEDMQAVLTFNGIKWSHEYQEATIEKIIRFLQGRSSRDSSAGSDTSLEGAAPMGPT
Outline: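 Reaction buffer was Dulbecco's PBS. Compound and 2 nM human SARM1 (50-724) were pre-incubated 15 min at room temperature, then […] NAD^+ and 200 µM NMN activator were added for 1 h at room temperature. Acetonitrile (70%) stop, LC-MS/MS read-out, IC50 values.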

Row | pIC50 | Compound
1 | ≥ 7.00 | CNc1ccc(Cl)c(-n2cnnc2-c2nc3cc(C(F)(F)F)ccc3[nH]2)n1 [Compound 175, 5-Chloro-N-methyl-6-(3-(5-(trifluoromethyl)-1H-benzo[d]imidazol-2-yl)-4H-1,2,4-triazol-4-yl)pyridin-2-amine]
2 | ≥ 7.00 | Fc1cc(C(F)(F)c2ccncc2)cc2nc(-c3nncn3-c3cnccc3C(F)(F)F)[nH]c12 [Compound 464, 6-(difluoro(pyridin-4-yl)methyl)-4-fluoro-2-(4-(4-(trifluoromethyl)pyridin-3-yl)-4H-1,2,4-triazol-3-yl)-1H-benzo[d]imidazole]
3 | < 6.00 | FC(F)(F)c1ccc2[nH]c([C@H]3COC[C@H]3c3ccccc3)nc2c1 (single isomer, unassigned) [Compound 351]
4 | ≥ 7.00 | CC(Oc1cc(F)c2[nH]c(-c3nncn3-c3cnccc3C(F)(F)F)nc2c1)C(F)(F)F (stereo not drawn) [Compound 355, 7-fluoro-2-(4-(4-(trifluoromethyl)pyridin-3-yl)-4H-1,2,4-triazol-3-yl)-5-((1,1,1-trifluoropropan-2-yl)oxy)-1H-benzo[d]imidazole]
5 | ≥ 7.00 | FC(F)(F)Oc1cnc(C2CCO2)cc1-n1cnnc1-c1nc2cc(C(F)(F)F)ccc2[nH]1 (stereo not drawn) [Compound 294, 2-(4-(2-(oxetan-2-yl)-5-(trifluoromethoxy)pyridin-4-yl)-4H-1,2,4-triazol-3-yl)-5-(trifluoromethyl)-1H-benzo[d]imidazole]
6 | 6.30 to 7.00 | NC(=O)c1ncc(-c2nc3cc(C(F)(F)F)ccc3[nH]2)n1-c1cccc(Cl)c1Cl [Example 89, 1-(2,3-dichlorophenyl)-5-(5-(trifluoromethyl)-1H-benzo[d]imidazol-2-yl)-1H-imidazole-2-carboxamide]
7 | ≥ 7.00 | Cc1ccc2[nH]c(-c3cnccc3-c3cccc(Cl)c3Cl)nc2c1 [Example 23]
8 | ≥ 7.00 | COC(=O)C(C)(C)c1ccc2[nH]c(-c3nncn3-c3cccc(Cl)c3Cl)nc2c1 [Example 102]
9 | 6.30 to 7.00 | Cn1cc(Cl)c(-n2cnnc2-c2nc3cc(C(F)(F)F)ccc3[nH]2)cc1=O [Compound 173, 5-chloro-1-methyl-4-(3-(5-(trifluoromethyl)-1H-benzo[d]imidazol-2-yl)-4H-1,2,4-triazol-4-yl)pyridin-2(1H)-one]
10 | ≥ 7.00 | O=S1(=O)CCN(c2ccc(Cl)c(-n3cnnc3-c3nc4cc(C(F)(F)F)ccc4[nH]3)n2)CC1 [Compound 201, 4-(5-chloro-6-(3-(5-(trifluoromethyl)-1H-benzo[d]imidazol-2-yl)-4H-1,2,4-triazol-4-yl)pyridin-2-yl)thiomorpholine 1,1-dioxide]
11 | < 6.00 | FC(F)(F)Cc1ccccc1-n1cnnc1-c1nc2cc(C(F)(F)F)ccc2[nH]1 [Compound 248, 2-(4-(2-(2,2,2-trifluoroethyl)phenyl)-4H-1,2,4-triazol-3-yl)-5-(trifluoromethyl)-1H-benzo[d]imidazole]
12 | < 6.00 | CS(=O)(=O)c1cccc(-n2cnnc2-c2nc3cc(C(F)(F)F)ccc3[nH]2)c1 [Example 52]
13 | ≥ 7.00 | CS(=O)(=O)Cc1nnc(-c2nc3cc(C(F)(F)F)cc(F)c3[nH]2)n1-c1cccc(Cl)c1Cl (single isomer, unassigned) [Compound 187, 2-(4-(2,3-Dichlorophenyl)-5-((methylsulfonyl)methyl)-4H-1,2,4-triazol-3-yl)-7-fluoro-5-(trifluoromethyl)-1H-benzo[d]imidazole]
14 | < 6.00 | N#CCc1cccc2[nH]c(-c3nncn3-c3cnccc3C(F)(F)F)nc12 [Compound 437, 2-(2-(4-(4-(trifluoromethyl)pyridin-3-yl)-4H-1,2,4-triazol-3-yl)-1H-benzo[d]imidazol-4-yl)acetonitrile]
15 | < 6.00 | Cc1ccc2[nH]c(-c3[nH]nnc3C3CCCC3)nc2c1 [Compound 33, 2-(4-cyclopentyl-1H-1,2,3-triazol-5-yl)-5-methyl-1H-benzo[d]imidazole]
16 | ≥ 7.00 | Fc1cc(C2CC23COC3)cc2nc(-c3nncn3-c3cnccc3C(F)(F)F)[nH]c12 (stereo not drawn) [Compound 413, 7-fluoro-5-(5-oxaspiro[2.3]hexan-2-yl)-2-[4-[4-(trifluoromethyl)-3-pyridyl]-1,2,4-triazol-3-yl]-1H-benzimidazole]

Further lines, the molecule ahead of its results:

Row | Compound | pIC50
17 | CC(c1cc(F)c2[nH]c(-c3nncn3-c3cnccc3C(F)(F)F)nc2c1)c1cc[nH]n1 (stereo not drawn) [Compound 430, 5-(1-(1H-pyrazol-5-yl)ethyl)-7-fluoro-2-(4-(4-(trifluoromethyl)pyridin-3-yl)-4H-1,2,4-triazol-3-yl)-1H-benzo[d]imidazole] | ≥ 7.00
18 | FC(F)(F)c1cnc2[nH]c(-c3nncn3-c3cnccc3C(F)(F)F)cc2c1 [Compound 287, 5-(trifluoromethyl)-2-(4-(4-(trifluoromethyl)pyridin-3-yl)-4H-1,2,4-triazol-3-yl)-1H-pyrrolo[2,3-b]pyridine] | ≥ 7.00
19 | CC(c1cc(F)c2[nH]c(-c3nncn3-c3cnccc3C(F)(F)F)nc2c1)c1nccs1 (single isomer, unassigned) [Compound 433, 2-(1-(7-fluoro-2-(4-(4-(trifluoromethyl)pyridin-3-yl)-4H-1,2,4-triazol-3-yl)-1H-benzo[d]imidazol-5-yl)ethyl)thiazole] | ≥ 7.00
20 | OC1(c2ccc3[nH]c(-c4nncn4-c4cccc(Cl)c4Cl)nc3c2)CC1 [Example 133] | ≥ 7.00
21 | Fc1cc(C2(c3nccs3)CC2)cc2nc(-c3nncn3-c3cnccc3C(F)(F)F)[nH]c12 [Compound 422, 2-[1-[7-fluoro-2-[4-[4-(trifluoromethyl)-3-pyridyl]-1,2,4-triazol-3-yl]-1H-benzimidazol-5-yl]cyclopropyl]thiazole] | ≥ 7.00
22 | FC(F)(F)Oc1cnccc1-n1cnnc1-c1nc2cc(C(F)(F)F)cc(Cl)c2[nH]1 [Compound 227, 7-chloro-2-(4-(3-(trifluoromethoxy)pyridin-4-yl)-4H-1,2,4-triazol-3-yl)-5-(trifluoromethyl)-1H-benzo[d]imidazole] | ≥ 7.00
23 | Cn1cc(-c2ccccc2)c(-c2nc3cc(C(F)(F)F)ccc3[nH]2)cc1=O [Example 86] | < 6.00
24 | Clc1cccc(-n2cnnc2-c2nc3cc(-c4cnn[nH]4)ccc3[nH]2)c1Cl [Example 56, 2-(4-(2,3-dichlorophenyl)-4H-1,2,4-triazol-3-yl)-5-(1H-1,2,3-triazol-5-yl)-1H-benzo[d]imidazole] | 6.30 to 7.00
25 | N#Cc1cccc(-n2cnnc2-c2nc3cc(C(F)(F)F)ccc3[nH]2)c1Cl [Compound 159, 2-chloro-3-(3-(5-(trifluoromethyl)-1H-benzo[d]imidazol-2-yl)-4H-1,2,4-triazol-4-yl)benzonitrile] | ≥ 7.00
26 | N#Cc1c(-c2cnccc2-c2cccc(Cl)c2Cl)[nH]c2ccc(C(F)(F)F)cc12 [Example 47, 2-(4-(2,3-dichlorophenyl)pyridin-3-yl)-5-(trifluoromethyl)-1H-indole-3-carbonitrile] | ≥ 7.00
27 | Fc1c(-c2nncn2-c2cnccc2C(F)(F)F)[nH]c2ccc(C(F)(F)F)cc12 [Compound 259, 3-fluoro-5-(trifluoromethyl)-2-(4-(4-(trifluoromethyl)pyridin-3-yl)-4H-1,2,4-triazol-3-yl)-1H-indole] | ≥ 7.00
28 | Oc1cc(F)c(Cl)c(-n2cnnc2-c2nc3cc(C(F)(F)F)cc(F)c3[nH]2)c1 [Compound 206, 4-chloro-3-fluoro-5-(3-(7-fluoro-5-(trifluoromethyl)-1H-benzo[d]imidazol-2-yl)-4H-1,2,4-triazol-4-yl)phenol] | ≥ 7.00
29 | Cc1ccc2[nH]c(-c3nncn3-c3cccc(Cl)c3Cl)nc2c1C [Example 93, 2-(4-(2,3-dichlorophenyl)-4H-1,2,4-triazol-3-yl)-4,5-dimethyl-1H-benzo[d]imidazole] | ≥ 7.00
30 | CC1CCN(c2cc(F)c3[nH]c(-c4nncn4-c4cnccc4C(F)(F)F)nc3c2)C1 (stereo not drawn) [Compound 436, 4-fluoro-6-(3-methylpyrrolidin-1-yl)-2-(4-(4-(trifluoromethyl)pyridin-3-yl)-4H-1,2,4-triazol-3-yl)-1H-benzo[d]imidazole] | ≥ 7.00
31 | COCCOc1c(Cl)ccc2[nH]c(-c3nncn3-c3cnccc3C(F)(F)F)nc12 [Compound 371, 5-chloro-4-(2-methoxyethoxy)-2-(4-(4-(trifluoromethyl)pyridin-3-yl)-4H-1,2,4-triazol-3-yl)-1H-benzo[d]imidazole] | 6.30 to 7.00
32 | Cn1cc(-c2cccc(F)c2Cl)c(-c2nc3cc(CC(N)=O)ccc3[nH]2)cc1=O [Compound 179, 2-(2-(5-(2-chloro-3-fluorophenyl)-1-methyl-2-oxo-1,2-dihydropyridin-4-yl)-1H-benzo[d]imidazol-5-yl)acetamide] | 6.30 to 7.00
33 | FC(F)(F)c1ccc2[nH]c(-c3nncn3-c3cnccc3C(F)(F)F)cc2c1 [Compound 258, 5-(trifluoromethyl)-2-(4-(4-(trifluoromethyl)pyridin-3-yl)-4H-1,2,4-triazol-3-yl)-1H-indole] | ≥ 7.00
